Read-outs that look alike come from different tables or passages of the source.
Assays:
[1] = cited from earlier work; for human half-life: reported human half-life simulated in the HFIM
[2] = tested on: wild-type MX/09 influenza; format: cell-based; settings: oseltamivir 75 mg Q12 and/or zanamivir 600 mg Q12 exposures, alone or in combination, throughout the study

Row | Compound | oral bioavailability ([1]; ref GlaxoSmithKline, 2009) | human half-life ([1]; ref GlaxoSmithKline, 2009) [h] | effect on viral replication relative to no-treatment control [2] | human half-life ([1]; ref Doucette and Aoki, 2001) [h]
1 | CC(=O)N[C@H]1[C@H]([C@H](O)[C@H](O)CO)OC(C(=O)O)=C[C@@H]1N=C(N)N [Zanamivir, zanamivir] | poor oral bioavailability | 2.5 |  | 
2 | Oseltamivir carboxylate |  |  | suppressed the replication of MX/09 | 8

Reference: publication PMC5694373 (European journal of pharmaceutical sciences : official …, 2017)
